Laboratory results: patent US5506354A, “Imidazolylpiperazinyl steroids” (The Upjohn Company, priority 1992, dated 1996)
Structures can show the parent of a compound that is named as a salt.

How the values were obtained:
interleukin-1 = experiment: Inhibition of interleukin-1 induced T cell proliferation; assay type: cell-based; details: for inhibition of interleukin 1 (activity in words): active = greater than 30% at 10^-6 M
Source text: The inhibition of interleukin-1 induced T cell proliferation assay, Proc. Nat. […] Since people with arthritis make excess interleukin 1, compounds which inhibit the activity of interleukin 1 are useful in the treatment of arthritis. According to this procedure compounds which inhibit the activity of interleukin 1 greater that 30% at 10^-6 M are considered to be "active".

[1] = test system: conjugated diene formation; experiment: Conjugated Diene Formation Assay (rat brain synaptosomes); assay type: biochemical; details: 100 μM (or less) of drug; active = inhibition by 50% or more
Source text: The formation of conjugated dienes as assayed by Braughler, J. Neurochem., 44, 1282 (1985), Bucher, Fund. Applied Tox., 3, 222 (1983) and Tein, Arch. Biochem. Biophy., 216, 142 (1982) is a standard pharmacological laboratory procedure useful for identifying compounds which inhibit lipid peroxidation. Since lipid peroxidation is involved in the pathophysiology of central nervous system trauma, compounds which inhibit conjugated diene formation are useful in treating the conditions listed below.
44, 1282 (1985). Synaptosomal suspension (10 μl) is added to 1 ml of physiological (normal) saline containing 1% Lubrol PX (Sigma Chemical Co. St. Louis, Mo.), 100 μM hydrogen peroxide and 100 μM (or less) of the drug to be tested prepared in either absolute ethanol or water depending upon solubility. The reaction is started by the rapid addition of 200 μM ferrous ammonium sulfate prepared in argon-purged water. The sample is rapidly mixed and the change in absorbence at 232 nm is followed in a Gifford Response Spectrophotometer equipped with a rapid sampler. Due to the rapidity of the reaction, rapid addition of the iron, rapid mixing and sampling are obligatory to the accuracy of the assay. For best results absorbence readings of one/sec should be started within 5 sec following the addition of iron. The initial linear rate of absorbence change during the first 30 sec of reaction are compared with the rate of a reaction containing all reagents except synaptosomes. The difference in rates is the rate of conjugated diene formation. Rates with drug are compared to rates obtained in the absence of drug and the % inhibition is calculated. A compound that inhibits conjugated diene formation by 50% or more is considered to be "active".

arachidonic acid = experiment: Arachidonic Acid Antagonism Assay (AAAA), LD50 of sodium arachidonate; assay type: in vivo, Charles River male CF-1 mice; details: for arachidonic acid antagonism (activity in words): test compound IV 15 min before sodium arachidonate, LD50 outside 95% confidence interval of control
Experimental: Since these metabolites contribute to the pathological problems associated with stroke, spinal trauma and head injury, compounds which antagonize arachidonic acid are useful in treating stroke, spinal trauma and head injury.
While not necessary to determine arachidonic acid antagonism, the above assay has been modified as follows: Charles River male CF-1 mice weighing 18-22 g are treated IV with the test compound dissolved in 1.0% Tween-80 and 0.1% hydrochloric acid in distilled water, 0.2 ml total volume. Fifteen minutes later sodium arachidonate (90% pure) in physiological (normal) saline is injected into the tail vein. The LD50 is measured using the Spearman-Karber method with a log dose interval of 0.05 (N=6). Compounds which elevate the LD50 outside of the 95% confidence interval of the control LD50 are considered to be "active".

MDA formation = experiment: Malonyldialdehyde (MDA) Formation Assay (rat brain synaptosomes); assay type: biochemical; details: 10 min at 37°, pH 7.0; active = 50% or more at 200 μM or less
Experimental: Since lipid peroxidation is involved in the pathophysiology of center nervous system trauma, compounds which inhibit MDA formation are useful in treating the conditions listed below.
While not necessary to determine MDA formation, the above assays have been modified as follows: rat brain synaptosomes are prepared as described in the Example about the conjugated diene assay, except that the final wash of the synaptosomes and final suspension are in physiological (normal) saline in which the pH has been adjusted to 7.0. The synaptosomes are incubated for 10 min at 37° in physiological (normal) saline pH 7.0 (total volume=100 ul) containing; 10 ul synaptosomal suspension, 10% DMSO plus or minus drug, 150 uM Fe^+++ and 50 uM Fe++. The incubation is started by the rapid addition of iron to the otherwise complete reaction. The iron solutions are prepared fresh as ferric chloride and ferrous ammonium sulfate in argon-purged water. Following the 10 min incubation, the reaction is stopped by the addition of 500 ul ice-cold 12% trichloroacetic acid prepared in 0.5N hydrochloric acid. Water (300 ul) is then added along with 100 ul of freshly prepared thiobarbituric acid (3.3% in 0.5N sodium hydroxide) and 10 ul of 5 mM desferrioxamine. The sample is then heated in a boiling water bath for 20 minutes. The samples are cooled and centrifuged for 15 minutes at 1500×g and the absorbence of the supernatant fraction is read at 532 nm. The % inhibition of MDA formation is calculated by dividing the absorbance of sample containing drug by the absorbence of samples incubated without drug. Reaction blanks are samples incubated in the absence of iron. A compound that inhibits MDA formation by 50% or more at a concentration of 200 μM or less is considered "active".

mucous secretion = experiment: Inhibition of mucous secretion assay of Johnson; details: for inhibition of mucous secretion (activity in words): induced mucous secretions; for preferred mucous inhibitors by the test results (in words): test results disclose
Source text: According to this procedure compounds which inhibit or block enhancement of induced mucous secretions when tested are considered to be "active".

angiogenesis = experiment: Chick embryo assay of Folkman (inhibition of angiogenesis / tumor growth); assay type: in vivo; details: 50 μg/10 μl in the presence of heparin
Experimental: According to this procedure compounds which are considered to be "active" (i.e. antiangiogenic) give an avascular zone of 4 mm or greater in some embryos when tested at 50 μg/10 μl in the presence of 50 μg/10μ of heparin.

Row | SMILES | inhibition of interleukin 1 (activity in words) (interleukin-1) | inhibition of conjugated diene formation (activity in words) [1] | arachidonic acid antagonism (activity in words) (arachidonic acid) | inhibition of MDA formation (activity in words) (MDA formation) | inhibition of mucous secretion (activity in words) (mucous secretion) | other results
1 | C[C@H]1C[C@@H]2C(=CC[C@@]3(C)[C@H]2CC[C@]3(O)C(=O)CN2CCN(c3cc(N4CCCC4)nc(N4CCCC4)n3)CC2)[C@@]2(C)C=CC(=O)C=C12 [Example 47, 17α-hydroxy-6α-methyl-21-[4-[2,6-bis(1-pyrrolidinyl)-4-pyrimidinyl]-1-piperazinyl]pregna-1,4,9(11)-triene-3,20-dione (E)-2-butenodioate salt] | demonstrate inhibition of interleukin 1 | demonstrate such activity | demonstrate arachidonic acid antagonism | demonstrate such activity |  | 
2 | C[C@]12CCC(=O)C=C1CC[C@@H]1C2=CC[C@@]2(C)[C@H]1CC[C@]2(O)C(=O)CN1CCC(O)(c2ccc(C(F)(F)F)cc2)CC1 [Example 5, 17α-Hydroxy-21-[4-hydroxy-4-(4-trifluoromethyl)-phenyl-1-piperidinyl]-pregna-4,9(11)-diene-3,20-dione] |  | demonstrate such activity |  |  |  | 
3 | C[C@@H]1C[C@H]2[C@@H]3CCC4=CC(=O)C=C[C@]4(C)[C@H]3[C@H](O)C[C@]2(C)[C@H]1C(=O)CN1CCN(c2cc(N3CCCC3)nc(N3CCCC3)n2)CC1 [Example 84, 11α-hydroxy-16α-methyl-21-[4-[2,6-bis(1-pyrrolidinyl)-4-pyrimidinyl]-1-piperazinyl]pregna-1,4-diene 3,20-dione] | demonstrate inhibition of interleukin 1 | demonstrate such activity |  |  |  | 
4 | C[C@]12CCC(=O)C=C1CC[C@@H]1C2=CC[C@@]2(C)[C@H]1CC[C@]2(O)C(=O)CN1CCN(c2cc(N3CCOCC3)nc(N3CCOCC3)n2)CC1 [Example 105, 21-[4-(2,6-Bis(4-morpholino)-4-pyrimidinyl)-1-piperazinyl]-17α-hydroxypregna-4,9(11)-diene-3,20-dione dihydrochloride, hydrate] | demonstrate inhibition of interleukin 1 |  |  |  | demonstrate such activity | preferred mucous inhibitors by the test results (in words) (mucous secretion): preferred mucous inhibitors; inhibition of angiogenesis (activity in words) (angiogenesis): demonstrate inhibition of angiogenesis
5 | C[C@]12CCC(=O)C=C1CC[C@@H]1C2=CC[C@@]2(C)[C@H]1CC[C@]2(O)C(=O)CN1CCN(c2cccc(N3CCCC3)n2)CC1 [Example 62, 17α-hydroxy-21-[4-[6-(1-pyrrolidinyl)-2-pyridinyl]-1-piperazinyl] pregna-4,9(11)-diene-3,20-dione (E)-2-butenedioate (1:1) salt] |  |  | demonstrate arachidonic acid antagonism | demonstrate such activity |  | % of Control LD50 100 mg/kg (arachidonic acid; 100 mg/kg, test compound IV): 138%
6 | C[C@@H]1C[C@H]2[C@@H]3CCC4=CC(=O)C=C[C@]4(C)C3=CC[C@]2(C)[C@H]1C(=O)CN1CCN(c2cc(N3CCOCC3)nc(N3CCOCC3)n2)CC1 [Example 86, 16α-methyl-21-[4-[2,6-bis(4-morpholino)-4-pyrimidinyl]-1-piperazinyl]-pregna-1,4,9(11)-triene-3,20-dione] | demonstrate inhibition of interleukin 1 | demonstrate such activity |  | demonstrate such activity |  | % Inhibition at 10^-6 M (interleukin-1; interleukin 1, 10^-6 M): 84%; inhibition of angiogenesis (activity in words) (angiogenesis): demonstrate inhibition of angiogenesis
7 | CS(=O)(=O)O.C[C@]12CCC(=O)C=C1CC[C@@H]1C2=CC[C@@]2(C)[C@H]1CC[C@]2(O)C(=O)CN1CCN(c2ccccn2)CC1 [Example 2, 17α-Hydroxy-21-[4-(2-pyridinyl)-1-piperazinyl]pregna-4,9(11)-diene-3,20-dione methanesulfonate] |  | demonstrate such activity | demonstrate arachidonic acid antagonism |  | demonstrate such activity | preferred mucous inhibitors by the test results (in words) (mucous secretion): preferred mucous inhibitors; % of Embryos with 4 mm or Greater Avascular Zone (angiogenesis): 85%
8 | CC(CN1CCN(c2cc(N3CCCC3)nc(N3CCCC3)n2)CC1)[C@H]1CC[C@H]2[C@@H]3CCC4=CC(=O)C=C[C@]4(C)[C@H]3CC[C@]12C.CS(=O)(=O)O.O (some centres unmarked) [Example 112, 21-[4-(2,6-Bis(1-pyrrolidinyl)-4-pyrimidinyl)-1-piperazinyl]-20-methylpregna-1,4-dien-3-one methanesulfonate, hydrate] |  | demonstrate such activity |  |  |  | 
9 | CCN(CC)c1cc(N2CCN(CC(=O)[C@@]3(O)CC[C@H]4[C@@H]5CCC6=CC(=O)CC[C@]6(C)C5=CC[C@@]43C)CC2)nc(N)n1 [Example 4, 21-[4-[2-Amino-6-(diethylamino)-4-pyrimidinyl]-1-piperazinyl]-17α-hydroxypregna-4,9(11)-diene-3,20-dione] |  | demonstrate such activity | demonstrate arachidonic acid antagonism |  | demonstrate such activity | 
10 | C[C@]12C=CC(=O)C=C1CC[C@@H]1C2=CC[C@]2(C)[C@@H](C(=O)CN3CCN(c4cc(N5CCCC5)nc(N5CCCC5)n4)CC3)CC[C@@H]12.Cl.Cl [Example 111, 21-[4-(2,6-Bis(1-pyrrolidinyl)-4-pyrimidinyl)-1-piperazinyl]pregna-1,4,9(11)-triene-3,20-dione dihydrochloride] |  | demonstrate such activity |  |  |  | 
11 | CS(=O)(=O)O.CS(=O)(=O)O.C[C@@H]1C[C@H]2[C@@H]3CCC4=CC(=O)C=C[C@]4(C)C3=CC[C@]2(C)[C@H]1C(=O)CN1CCN(c2cc(N3CCCC3)nc(N3CCCC3)n2)CC1 [Example 83, 16α-Methyl-21-[4-(2,6-bis(1-pyrrolidinyl)-4-pyrimidinyl]-1-piperazinyl]pregna-1,4,9(11)-triene-3,20-dione dimethane-sulfonate] | demonstrate inhibition of interleukin 1 | demonstrate such activity |  | demonstrate such activity | demonstrate such activity | preferred mucous inhibitors by the test results (in words) (mucous secretion): preferred mucous inhibitors; inhibition of angiogenesis (activity in words) (angiogenesis): demonstrate inhibition of angiogenesis
